Target: human HPK1 (MAP4K1) (Homo sapiens (Human), UniProt Q92918)
Experiment: HPK1 IC50 Assay (TR-FRET peptide phosphorylation)
Format: biochemical
Conditions: recombinant HPK1 kinase domain 0.15 nM, 10 μM ATP, 1 μM STK S1 peptide; geometric mean of multiple experiments
In short: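 Pre-activated, dually phosphorylated baculovirus-expressed HPK1 kinase domain (0.15 nM) preincubated 15 min with compound, then reacted 3 h at 25° C with 10 μM ATP and 1 μM STK S1 peptide in BES pH 7.0 buffer. Phosphopeptide read by TR-FRET (665/620 nm); four-parameter fit, geometric-mean IC50.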

Sequence of human HPK1 (MAP4K1) (Q92918 17-274): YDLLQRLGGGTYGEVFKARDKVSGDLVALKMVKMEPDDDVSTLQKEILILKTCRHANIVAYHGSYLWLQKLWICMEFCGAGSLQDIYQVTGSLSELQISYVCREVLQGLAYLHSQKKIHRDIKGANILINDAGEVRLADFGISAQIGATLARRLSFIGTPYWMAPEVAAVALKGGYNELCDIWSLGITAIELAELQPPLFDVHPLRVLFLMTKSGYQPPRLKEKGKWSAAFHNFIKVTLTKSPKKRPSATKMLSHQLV

Row | SMILES | IC50
1 | Cc1c(C(=O)NC(C)C)cc(Nc2nc(-c3cnc4c(c3)N([C@H]3C[C@@](C)(N5CCCCC5)C3)C(=O)C4(C)C)cc3ncn(C(C)C)c23)c(F)c1F [Example 220, 5-((6-(3,3-Dimethyl-1-((1s,3s)-3-methyl-3-(piperidin-1-yl)cyclobutyl)-2-oxo-2,3-dihydro-1H-pyrrolo[3,2-b]pyridin-6-yl)-3-isopropyl-3H-imidazo[4,5-c]pyridin-4-yl)amino)-3,4-difluoro-N-isopropyl-2-methylbenzamide] | 0.09 nM
2 | Cc1c(C(=O)NC2CC2)cc(Nc2nc(-c3cnc4c(c3)N([C@H]3C[C@@](C)(N5CCCCC5)C3)C(=O)C4(C)C)cc3ncn(C(C)C)c23)c(F)c1F [Example 221, N-Cyclopropyl-5-((6-(3,3-dimethyl-1-((1s,3s)-3-methyl-3-(piperidin-1-yl)cyclobutyl)-2-oxo-2,3-dihydro-1H-pyrrolo[3,2-b]pyridin-6-yl)-3-isopropyl-3H-imidazo[4,5-c]pyridin-4-yl)amino)-3,4-difluoro-2-methylbenzamide] | 0.07 nM
3 | CCNC(=O)c1cc(Nc2nc(-c3cnc4c(c3)N([C@H]3C[C@@](C)(N5CCCCC5)C3)C(=O)C4(C)C)cc3ncn(C(C)C)c23)c(F)c(F)c1C [Example 222, 5-((6-(3,3-Dimethyl-1-((1s,3s)-3-methyl-3-(piperidin-1-yl)cyclobutyl)-2-oxo-2,3-dihydro-1H-pyrrolo[3,2-b]pyridin-6-yl)-3-isopropyl-3H-imidazo[4,5-c]pyridin-4-yl)amino)-N-ethyl-3,4-difluoro-2-methylbenzamide] | 0.06 nM
4 | CCNC(=O)c1ccc(F)c(Nc2nc(-c3cnc4c(c3)N([C@H]3C[C@@](C)(N5CCCCC5)C3)C(=O)C4(C)C)cc3ncn(C(C)C)c23)c1 [Example 223, 3-((6-(3,3-Dimethyl-1-((1s,3s)-3-methyl-3-(piperidin-1-yl)cyclobutyl)-2-oxo-2,3-dihydro-1H-pyrrolo[3,2-b]pyridin-6-yl)-3-isopropyl-3H-imidazo[4,5-c]pyridin-4-yl)amino)-N-ethyl-4-fluorobenzamide] | 0.2 nM
5 | Cc1c(C(=O)NC2(C(F)F)CC2)cc(Nc2nc(-c3cnc4c(c3)N([C@H]3C[C@@](C)(N5CC6CCC5CO6)C3)C(=O)C4(C)C)cc3ncn(C(C)C)c23)c(F)c1F (some centres unmarked) [Example 224, 5-((6-(1-((1s,3s)-3-(2-oxa-5-azabicyclo[2.2.2]octan-5-yl)-3-methylcyclobutyl)-3,3-dimethyl-2-oxo-2,3-dihydro-1H-pyrrolo[3,2-b]pyridin-6-yl)-3-isopropyl-3H-imidazo[4,5-c]pyridin-4-yl)amino)-N-(1-(difluoromethyl)cyclopropyl)-3,4-difluoro-2-methylbenzamide] | 0.06 nM
6 | CC(C)n1cnc2cc(-c3cnc4c(c3)N([C@H]3C[C@@](C)(N5CCC6CC6C5)C3)C(=O)C4(C)C)nc(Nc3cc(C(=O)NC4(C(F)F)CC4)c(Cl)c(F)c3F)c21 (some centres unmarked) [Example 225, 5-((6-(1-((1s,3s)-3-(3-Azabicyclo[4.1.0]heptan-3-yl)-3-methylcyclobutyl)-3,3-dimethyl-2-oxo-2,3-dihydro-1H-pyrrolo[3,2-b]pyridin-6-yl)-3-isopropyl-3H-imidazo[4,5-c]pyridin-4-yl)amino)-2-chloro-N-(1-(difluoromethyl)cyclopropyl)-3,4-difluorobenzamide] | 0.08 nM
7 | CC(C)n1cnc2cc(-c3cnc4c(c3)N([C@H]3C[C@@](C)(N5CCCCCC5)C3)C(=O)C4(C)C)nc(Nc3cc(C(=O)NC4(C(F)F)CC4)c(Cl)c(F)c3F)c21 [Example 226, 5-((6-(1-((1s,3s)-3-(Azepan-1-yl)-3-methylcyclobutyl)-3,3-dimethyl-2-oxo-2,3-dihydro-1H-pyrrolo[3,2-b]pyridin-6-yl)-3-isopropyl-3H-imidazo[4,5-c]pyridin-4-yl)amino)-2-chloro-N-(1-(difluoromethyl)cyclopropyl)-3,4-difluorobenzamide] | 0.1 nM
8 | CC(C)n1cnc2cc(-c3cnc4c(c3)N([C@H]3C[C@@](C)(N5CCC6CC6C5)C3)C(=O)C4(C)C)nc(Nc3cc(C(=O)NC4(CF)CC4)c(Cl)c(F)c3F)c21 (some centres unmarked) [Example 227, 5-((6-(1-((1s,3s)-3-(3-Azabicyclo[4.1.0]heptan-3-yl)-3-methylcyclobutyl)-3,3-dimethyl-2-oxo-2,3-dihydro-1H-pyrrolo[3,2-b]pyridin-6-yl)-3-isopropyl-3H-imidazo[4,5-c]pyridin-4-yl)amino)-2-chloro-3,4-difluoro-N-(1-(fluoromethyl)cyclopropyl)benzamide] | 0.1 nM
9 | Cc1c(C(=O)NC2(C(F)F)CC2)cc(Nc2nc(-c3cnc4c(c3)N([C@H]3C[C@@](C)(N5CC6CCC(C5)O6)C3)C(=O)C4(C)C)cc3ncn(C(C)C)c23)c(F)c1F [Example 228, 5-((6-(1-((1s,3s)-3-(8-Oxa-3-azabicyclo[3.2.1]octan-3-yl)-3-methylcyclobutyl)-3,3-dimethyl-2-oxo-2,3-dihydro-1H-pyrrolo[3,2-b]pyridin-6-yl)-3-isopropyl-3H-imidazo[4,5-c]pyridin-4-yl)amino)-N-(1-(difluoromethyl)cyclopropyl)-3,4-difluoro-2-methylbenzamide] | 0.3 nM
10 | Cc1c(C(=O)NC2(C(F)F)CC2)cc(Nc2nc(-c3cnc4c(c3)N([C@H]3C[C@@](C)(N5CCCCCC5)C3)C(=O)C4(C)C)cc3ncn(C(C)C)c23)c(F)c1F [Example 229, 5-((6-(1-((1s,3s)-3-(Azepan-1-yl)-3-methylcyclobutyl)-3,3-dimethyl-2-oxo-2,3-dihydro-1H-pyrrolo[3,2-b]pyridin-6-yl)-3-isopropyl-3H-imidazo[4,5-c]pyridin-4-yl)amino)-N-(1-(difluoromethyl)cyclopropyl)-3,4-difluoro-2-methylbenzamide] | 0.08 nM
11 | Cc1c(C(=O)NC2(C(F)F)CC2)cc(Nc2nc(-c3cnc4c(c3)N([C@H]3C[C@@](C)(N5CC6CCC(C6)C5)C3)C(=O)C4(C)C)cc3ncn(C(C)C)c23)c(F)c1F [Example 230, 5-((6-(1-((1s,3s)-3-(3-Azabicyclo[3.2.1]octan-3-yl)-3-methylcyclobutyl)-3,3-dimethyl-2-oxo-2,3-dihydro-1H-pyrrolo[3,2-b]pyridin-6-yl)-3-isopropyl-3H-imidazo[4,5-c]pyridin-4-yl)amino)-N-(1-(difluoromethyl)cyclopropyl)-3,4-difluoro-2-methylbenzamide] | 0.1 nM
12 | Cc1c(C(=O)NC2(C(F)F)CC2)cc(Nc2nc(-c3cnc4c(c3)N(C3CC(C)(N5CCC6C[C@@H]6C5)C3)C(=O)C4(C)C)cc3ncn(C(C)C)c23)c(F)c1F (some centres unmarked) [Example 231, 5-((6-(1-((1s,3s)-3-(3-Azabicyclo[4.1.0]heptan-3-yl)-3-methylcyclobutyl)-3,3-dimethyl-2-oxo-2,3-dihydro-1H-pyrrolo[3,2-b]pyridin-6-yl)-3-isopropyl-3H-imidazo[4,5-c]pyridin-4-yl)amino)-N-(1-(difluoromethyl)cyclopropyl)-3,4-difluoro-2-methylbenzamide] | 0.1 nM
13 | Cc1c(C(=O)NC2(C(F)F)CC2)cc(Nc2nc(-c3cnc4c(c3)N(C3CC(C)(N5CCC6C[C@@H]6C5)C3)C(=O)C4(C)C)cc3ncn(C(C)C)c23)c(F)c1F (some centres unmarked) [Example 232, 5-((6-(1-((1s,3s)-3-(3-azabicyclo[4.1.0]heptan-3-yl)-3-methylcyclobutyl)-3,3-dimethyl-2-oxo-2,3-dihydro-1H-pyrrolo[3,2-b]pyridin-6-yl)-3-isopropyl-3H-imidazo[4,5-c]pyridin-4-yl)amino)-N-(1-(difluoromethyl)cyclopropyl)-3,4-difluoro-2-methylbenzamide] | 0.09 nM
14 | Cc1c(C(=O)NC2(C(F)F)CC2)cc(Nc2nc(-c3cnc4c(c3)N(C3CC(C)(N5CCC6C[C@@H]6C5)C3)C(=O)C4(C)C)cc3ncn(C(C)C)c23)c(F)c1F (some centres unmarked) [Example 233, 5-((6-(1-((1s,3s)-3-(3-azabicyclo[4.1.0]heptan-3-yl)-3-methylcyclobutyl)-3,3-dimethyl-2-oxo-2,3-dihydro-1H-pyrrolo[3,2-b]pyridin-6-yl)-3-isopropyl-3H-imidazo[4,5-c]pyridin-4-yl)amino)-N-(1-(difluoromethyl)cyclopropyl)-3,4-difluoro-2-methylbenzamide] | 0.08 nM
15 | CC(C)n1cnc2cc(-c3cnc4c(c3)N([C@H]3C[C@@](C)(N5CC6CC6C5)C3)C(=O)C4(C)C)nc(Nc3cc(C(=O)NC4(C(F)F)CC4)c(Cl)c(F)c3F)c21 (some centres unmarked) [Example 234, 5-((6-(1-((1s,3s)-3-(3-Azabicyclo[3.1.0]hexan-3-yl)-3-methylcyclobutyl)-3,3-dimethyl-2-oxo-2,3-dihydro-1H-pyrrolo[3,2-b]pyridin-6-yl)-3-isopropyl-3H-imidazo[4,5-c]pyridin-4-yl)amino)-2-chloro-N-(1-(difluoromethyl)cyclopropyl)-3,4-difluorobenzamide] | 0.3 nM
16 | Cc1cc(F)c(Nc2nc(-c3ccc4c(c3)N([C@H]3C[C@@](C)(N5CCCCC5)C3)C(=O)C4(C)C)cc3ncn(C(C)C)c23)cc1C(=O)NC1(C(F)F)CC1 [Example 235, N-(1-(difluoromethyl)cyclopropyl)-5-((6-(3,3-dimethyl-1-((1s,3s)-3-methyl-3-(piperidin-1-yl)cyclobutyl)-2-oxoindolin-6-yl)-3-isopropyl-3H-imidazo[4,5-c]pyridin-4-yl)amino)-4-fluoro-2-methylbenzamide] | 0.1 nM
17 | Cc1c(C(=O)NC2(C(F)F)CC2)cc(Nc2nc(-c3ccc4c(c3)N([C@H]3C[C@@](C)(N5CCCCC5)C3)C(=O)C4(C)C)cc3ncn(C(C)C)c23)c(F)c1F [Example 236, N-(1-(Difluoromethyl)cyclopropyl)-5-((6-(3,3-dimethyl-1-((1s,3s)-3-methyl-3-(piperidin-1-yl)cyclobutyl)-2-oxoindolin-6-yl)-3-isopropyl-3H-imidazo[4,5-c]pyridin-4-yl)amino)-3,4-difluoro-2-methylbenzamide] | 0.07 nM

Reference: patent US11203591B2, “Substituted 6-azabenzimidazole compounds” (Gilead Sciences, Inc., priority 2018, dated 2021)
